Data from patent US12552747B2, “Amino acid derivative containing non-steroidal anti-inflammatory drug structure and preparation method and application thereof” (priority 2020, dated 2026).
Marks after values point to notes of the source that are not given here.

Experiments:
Lung cancer H460 cells = test: In vitro antitumor activity test (MTT), H460; type: cell-based; details: Homo sapiens, NCI-H460, 24 h
Protocol: (§1) 13 human tumor cell lines were selected and cultured in RPMI-1640 medium (Gibco company) containing 10% inactivated fetal bovine serum, 100 U/ml penicillin and 100 U/ml streptomycin, cultured at 37° C. in a 5% CO2 incubator, and passaged once every 2 days. Using the MTT method, cells in the logarithmic growth phase were digested with 0.25% trypsin, centrifuged at 1000 r/min for 5 min, 8×10^3 cells were added to each well, and seeded in a 96-well plate, and 180 μl of cell suspension was added to each well, and a blank was set at the same time. The 96-well plate inoculated with tumor cells was placed in a carbon dioxide incubator for 24 hours, and then 20 μl of the drug was added, and an equal volume of culture medium was added to the blank control well, and the drug was divided into 8 concentrations from 50 μg/L to 0.4 μg/L. Three duplicate wells were set for each drug concentration and placed in an incubator for 24 h. 10 μl of MTT solution (5 mg/ml) was added to each well, and the culture was continued for 4 h. The supernatant was aspirated and discarded, 100 μl of dimethyl sulfoxide (DMSO) solution was added to each well, placed on a micro shaker for 10 min, and the absorbance (A value) was measured at a wavelength of 492 nm in a microplate reader, and the inhibition rate of the drug on tumor cells was calculated according to the following formula.
(§2) In this test, the IC50 value of the compound on tumor cells was calculated by the Origin software according to the inhibition rate of the compound. AC-201 in the following table was the abbreviation of PL-AC-201, and so on.

HepG-2 liver tumors = test: Transplanted tumor in nude mice, intraperitoneal, HepG-2; type: in vivo, BALB/c nude mice; details: 8 administrations
Protocol: (§3) BALB/c nude mice were used to inoculate Bel-7402, HepG-2 and SK-hep1 liver tumors according to the transplanted tumor research method under aseptic operation, and the cell density was not less than 5×10^6/ml, 0.2 ml was inoculated subcutaneously in the axilla of the right hind limb of each mouse. After the cells were inoculated, the cells were administered intraperitoneally (concentration: 5 mg/kg), once every 3 days, for a total of 8 administrations. After the 2nd day of drug withdrawal, all tumor-bearing mice were sacrificed, and their body weight, tumor weight and tumor inhibition were weighed.

[1] = Acute toxicity test of single administration to ICR mice; details: mouse, in vivo, intravenous, single tail vein injection, observed 7 days
Protocol: ICR mice, 18-22 g, were raised in a common-grade animal room, fed with common feed, and ingested freely. The group distance and dose were determined after exploring the Dm and Dn of the compounds of the examples. Five concentrations of the compounds of the examples were formulated at the desired dose. The corresponding doses of drugs were injected into the tail vein according to body weight, and the blank control group was injected with normal saline. Immediately after administration, the performance and death of each animal were observed and recorded, and the possible toxic reaction or death of animals within 7 days after a single administration was observed and recorded.

SK-hep1 liver tumors = test: Transplanted tumor in nude mice, intraperitoneal, SK-hep1; type: in vivo, BALB/c nude mice; details: 8 administrations
Protocol: as §3

Lung cancer H292 cells = test: In vitro antitumor activity test (MTT), H292; type: cell-based; details: Homo sapiens, NCI-H292, 24 h
Protocol: as §1, §2

[2] = system: Liver cancer HepG-2 cells; test: In vitro antitumor activity test (MTT), HepG-2; type: cell-based; details: Homo sapiens, HepG2; Liver cancer HepG-2, MTT, 24 h
Protocol: as §1, §2

[3] = system: 13 human tumor cell lines; test: Average IC50 over the tumor cell lines (MTT); type: cell-based; details: mean IC50 for each tumor, read-out: AverageIC50
Protocol: as §1, §2
The ratio of the hemolytic concentration MHC of the compound to the mean IC50 for each tumor was referred to as the therapeutic index (TI). The safety of the compound was evaluated by the therapeutic index. The higher the therapeutic index, the greater the safety range of the compound.

Lung cancer H1299 cells = test: In vitro antitumor activity test (MTT), H1299; type: cell-based; details: Homo sapiens, NCI-H1299, 24 h
Protocol: as §1, §2

Bel-7402 liver tumors = test: Transplanted tumor in nude mice, intraperitoneal, Bel-7402; type: in vivo, BALB/c nude mice; details: 8 administrations
Protocol: as §3

[4] = system: Pancreatic cancer Bxpc-3 cells; test: In vitro antitumor activity test (MTT), Bxpc-3; type: cell-based; details: Homo sapiens; Pancreatic cancer Bxpc-3, MTT, 24 h
Protocol: as §1, §2

[5] = system: Liver cancer Bel-7402 cells; test: In vitro antitumor activity test (MTT), Bel-7402; type: cell-based; details: Homo sapiens; Liver cancer Bel-7402, MTT, 24 h
Protocol: as §1, §2

[6] = system: Breast cancer MCF-7 cells; test: In vitro antitumor activity test (MTT), MCF-7; type: cell-based; details: Homo sapiens, MCF7; Breast cancer MCF-7, MTT, 24 h
Protocol: as §1, §2

Colon cancer HT29 cells = test: In vitro antitumor activity test (MTT), HT29; type: cell-based; details: Homo sapiens, HT-29, 24 h
Protocol: as §1, §2

Melanoma B16 cells = test: In vitro antitumor activity test (MTT), B16; type: cell-based; details: 24 h
Protocol: as §1, §2

Lung cancer A549 cells = test: In vitro antitumor activity test (MTT), A549; type: cell-based; details: Homo sapiens, 24 h
Protocol: as §1, §2

[7] = system: Cervical cancer Hela cells; test: In vitro antitumor activity test (MTT), Hela; type: cell-based; details: Homo sapiens, 24 h
Protocol: as §1, §2

[8] = system: Human osteosarcoma MG63 cells; test: In vitro antitumor activity test (MTT), MG63; type: cell-based; details: MG-63, 24 h
Protocol: as §1, §2

human red blood cells = test: Detection of hemolytic activity; type: cell-based
Protocol: 2-3 ml of human blood was drawn using an anticoagulant tube, thoroughly mixed, and kept at 4° C. for later use. 2 ml of blood was aspirated and added with 2-3 ml of PBS, followed by gently pipetting and centrifugation for 5 min at 1000 rpm, which was repeated 3-4 times. After the last centrifugation, PBS was aspirated, PBS was added to 40 ml (20 times the volume), and the number of blood cells at this time was 2×10^8 cells/ml. The red blood cell suspension was added to the plate (U-shaped 96-well plate), and 70 μl/well was used as a negative well. Only PBS was added to blank wells, 140 μl/well. 2 ml of the red blood cell suspension was centrifuged, PBS was discarded, 2 ml of pure water was added, mixed well, and 140 μl/well was used as a positive well. The diluted polypeptide solutions of different concentrations were added to the plate, 70 μl/well. Incubated at 37° C., 87 rpm, shaken for 2h, centrifuged for 5 min at 3000 rpm. The OD value measured by microplate reader: After centrifugation, 90 μl of supernatant was drawn and transferred to a flat-bottom 96-well plate, and the OD value at 578 nm was measured by microplate reader. ODtest-OD negative >0.1 (the first concentration that met the conditions was MHC).

[9] = system: Liver cancer SK-hep1 cells; test: In vitro antitumor activity test (MTT), SK-hep1; type: cell-based; details: Homo sapiens, 24 h
Protocol: as §1, §2

[10] = HepG-2, 5 mg/kg i.p. once every 3 days
[11] = SK-hep1, 5 mg/kg i.p. once every 3 days
[12] = Bel-7402, 5 mg/kg i.p. once every 3 days

In the case of CC(C(=O)NC(Cc1ccc(-c2ccccc2)cc1)C(=O)NC1CC(C)(C)NC(C)(C)C1)c1cccc(C(=O)c2ccccc2)c1 (centres unmarked) [PL-AC-206], the IC50 (Lung cancer H460 cells) is reported as 20 nM, the Tumor inhibition rate (HepG-2 liver tumors; [10]) is reported as “^ΔΔ74.6** %” and the Tumor weight (HepG-2 liver tumors; [10]) is reported as 468.9 ± 2.2 mg. For the same compound, the “Body Weight After administration” value (HepG-2 liver tumors; HepG-2 tumor-bearing BALB/c mice, 5 mg/kg i.p. once every 3 days) was 23.5 ± 1.1 g, the LD50 at 7 days [1] was 31.7 mg/kg and the Tumor inhibition rate (SK-hep1 liver tumors; [11]) was “^ΔΔ69.9** %”. For the same compound, the Tumor weight (SK-hep1 liver tumors; [11]) was 337.3 ± 6.1 mg, the “Body Weight After administration” value (SK-hep1 liver tumors; SK-hep1 tumor-bearing BALB/c mice, 5 mg/kg i.p. once every 3 days) was 23.0 ± 1.5 g and the IC50 (Lung cancer H292 cells) was 24.1 nM. For the same compound, the IC50 [2] was 16.1 nM, the IC50 [3] was 24.6 nM and the IC50 (Lung cancer H1299 cells) was 20.2 nM. For the same compound, the Tumor inhibition rate (Bel-7402 liver tumors; [12]) was “^ΔΔ71.4** %”, the Tumor weight (Bel-7402 liver tumors; [12]) was 226.8 ± 9.1 mg and the “Body Weight After administration” value (Bel-7402 liver tumors; Bel-7402 tumor-bearing BALB/c mice, 5 mg/kg i.p. once every 3 days) was 23.8 ± 1.3 g. For the same compound, the IC50 [4] was 37.7 nM, the IC50 [5] was under 38.2 nM and the IC50 [6] was 22.5 nM. The IC50 (Colon cancer HT29 cells) was 37.4 nM, the IC50 (Melanoma B16 cells) was 30.1 nM and the IC50 (Lung cancer A549 cells) was 27.5 nM. For the same compound, the IC50 [7] was 19.2 nM, the IC50 [8] was 24.9 nM and the MHC (human red blood cells; hemolytic concentration, in nM) was 4.9e+06 nM. For the same compound, the MHC (human red blood cells; human red blood cells, 37° C., 2h, first concentration with ODtest-OD negative >0.1) was 3000 µg/mL and the IC50 [9] was 15.7 nM.
